From patent US11700870B2, “Use of tri- and tetra-saccharides as taste modulators” (Tate & Lyle Solutions USA LLC, priority 2016, dated 2023)

Legend:
[1] = system: panelists; test: Sweetness rating against sucrose SEV reference solutions; type: in vivo, human; details: for sweetness equivalence, as % solution of sucrose: 10% solution of the saccharide
Description: (§1) Additional sensory testing was carried out in accordance with the following procedure. The general framework for the sensory testing was to compare various concentrations of steviol glycoside (rebaudioside A) ranging from 100 ppm to as high as 2000 ppm at intervals spaced to characterize an adequate dose response. Due to known carryover effects, products were served as no more than two products per day, generally served as one of the following pairs: 100 ppm/250 ppm; 500 ppm/1000 ppm; 750 ppm/1500 ppm; 1000 ppm/2000 ppm. The products were not served counterbalanced, but were instead served in ascending concentration to allow for cleaner reads on both data points. The solutions were served in 2 ounce soufflé cups coded with 3-digit codes at room temperature. Store-purchased distilled water and unsalted crackers were available for the panelists to clear their palates before and during testing. Each daily study targeted 30 persons, though at times as fewer panelists were tested due to exclusionary requirements (i.e., those who are lactating, pregnant, on medication, etc., begin the study but then drop out during the study).
The study was designed as a rating study using an anchored scale of references of sucrose solutions in neutral pH water. In this study, panelists received a series of reference samples labeled and identified with their SEV equivalence. The range exceeded the expected sweetness of the test sample and panelists rated the sweetness using a 15-pt maximum that exceeds the expected sweetness of the test sample.
Because one cannot predict the sensitivities of all individuals effectively prior to testing, a broader range of references was used. Specifically, SEV references were as follows (the percentages stated are in weight %):
(§2) Panelists first were asked to familiarize themselves with the intensity of each reference solution and its corresponding SEV. Next, they waited 30 sec and cleansed their palate with water and a cracker. Then panelists were asked to taste the test sample (identified by a random 3-digit code). Then they were instructed to drag a marker on a line scale to match the sweetness of their test samples relative to the references noted above, with the scale ranging from 0 to 15. The value they selected was shown above the line scale so panelists were aware of what values they were indicating. Once this was complete, inquiries related to the liking of the test sample, the similarity of the taste of the test sample to sugar, the intensity of any off flavors, and the identity of any off flavors were asked.

[2] = system: panelists; test: Comparative bitterness of 1000 ppm rebaudioside A 97 solutions, three panelists; type: in vivo, human; details: for masking the bitterness of rebaudioside A 97: conclusion from the panel, 10% with 1000 ppm rebaudioside A 97
Description: Three aqueous solutions of 1000 ppm rebaudioside A 97 (rebaudioside A having a purity of 97%) were prepared with 10% maltotriose, 2.5% sucrose, or no additional component. The sweetness of a 10% maltotriose solution is approximately equal to a 2.5% sucrose solution. Three panelists were asked to assess the samples for comparative bitterness and were instructed to rinse with water between samples in order to mute any carry-over effects. […] One panelist found the sucrose-containing solution to be the most bitter. […] The panelist that reported the sucrose-containing solution to be less bitter than the maltotriose containing solution, self-identified as an individual not particularly sensitive to the bitterness of rebaudioside A 97. Therefore, the bitterness masking effect of maltotriose may be more plainly observed in those more sensitive to the bitterness of rebaudioside A 97.
Three aqueous solutions of 1000 ppm rebaudioside A 97 were prepared with 10% maltotetraose-enriched syrup (containing 60% maltotetraose on a dry weight basis with other carbohydrates including maltotriose, maltose and glucose), 2.5% sucrose, or no additional component. As a note, the sweetness of a 10% maltotetraose solution is roughly equal to a 2.5% sucrose solution. Three panelists were asked to assess the samples for comparative bitterness and were instructed to rinse with water between samples in order to mute any carry-over effects. […] Therefore, the bitterness masking effect of maltotetraose may be more plainly observed in those sensitive to the bitterness of rebaudioside A 97.

[3] = system: panelists; test: Off flavor intensity rating across the rebaudioside A dose response; type: in vivo, human
Description: as §1
as §2, with “asked. […]” for “asked.”

[4] = system: human sense of taste; test: Taste threshold concentration in aqueous solution; type: in vivo; details: neutral aqueous solution containing no other ingredients
Description: As used herein, the term “taste threshold concentration associated with the tri-/tetra-saccharide(s)” means the minimum concentration at which a person can still taste the tri-/tetra-saccharide(s) by the human sense of taste, in particular in an aqueous solution containing no ingredient other than water and the tri-/tetra-saccharide(s). This taste threshold concentration may vary somewhat from person to person. For example, melezitose has a taste threshold concentration of about 2.5% by weight in a neutral aqueous solution containing no other ingredients.

[5] = dissolves in 100 g water at 21° C.; cited from earlier work
[6] = recent studies, Food Chemistry 132 (2012) 1951-1958; cited from earlier work
[7] = system: S. mutans; details: recent studies, Food Chemistry 132 (2012) 1951-1958; cited from earlier work
[8] = as compared to sucrose; cited from earlier work
[9] = on a weight basis; cited from earlier work

Molecule: maltotriose
- sweetness equivalence, as % solution of sucrose [1]: ~2.5%
- comparative bitterness versus rebaudioside A control ([2]; 1000 ppm rebaudioside A 97 in water with 10% test saccharide): less bitter than the rebaudioside A control
- panelists who found the sample the least bitter of the three samples ([2]; 1000 ppm rebaudioside A 97 with 10% test saccharide, versus 2.5% sucrose and no additional component, three panelists): Two of the three
- panelists who found the sample less bitter than the rebaudioside A control ([2]; 1000 ppm rebaudioside A 97 with 10% test saccharide, three panelists): All three
- masking the bitterness of rebaudioside A 97 [2]: effective

Molecule: OC[C@H]1O[C@@](CO)(O[C@H]2O[C@H](CO)[C@@H](O)[C@H](O)[C@H]2O)[C@@H](O[C@H]2O[C@H](CO)[C@@H](O)[C@H](O)[C@H]2O)[C@@H]1O [melezitose, α-D-glucose (1-3)-β-D-fructose (2-1)-α-D-glucose]
- sweetness equivalence, as % solution of sugar (sucrose) ([1]; 5% solution of the saccharide): ~1%
- sweetness equivalence, as % solution of sucrose [1]: 2.5%
- reduction of off-tastes of Reb A ([3]; 5% solution of melezitose (subsweet), FIG. 5): clear impact on the reduction of off-tastes
- reduction of off-tastes of Reb A ([3]; 10% melezitose solution, as sweet as 2.5% sucrose, FIG. 6): dramatic
- taste threshold concentration [4]: about 2.5 % by weight
- solubility in water [5]: 26.8 g
- digestibility by in vitro assay [6]: not to be digestible
- utilization by S. mutans in dental caries assay [7]: not utilized

Molecule: OC[C@H]1O[C@H](OC[C@H]2O[C@H](OC[C@H]3O[C@H](O[C@]4(CO)O[C@H](CO)[C@@H](O)[C@@H]4O)[C@H](O)[C@@H](O)[C@@H]3O)[C@H](O)[C@@H](O)[C@H]2O)[C@H](O)[C@@H](O)[C@H]1O [Stachyose, stachyose]
- degree of digestibility [8]: low
- sweetness relative to sucrose [9]: approximately 28%

Molecule: OC[C@H]1O[C@H](O[C@H]2[C@H](O)[C@@H](O)[C@@H](O[C@H]3[C@H](O)[C@@H](O)[C@@H](O[C@H]4[C@H](O)[C@@H](O)C(O)O[C@@H]4CO)O[C@@H]3CO)O[C@@H]2CO)[C@H](O)[C@@H](O)[C@@H]1O (some centres unmarked) [maltotetraose]
- sweetness equivalence, as % solution of sucrose [1]: ~2.5%
- masking the bitterness of rebaudioside A 97 [2]: effective

Molecule: OC[C@H]1O[C@@](CO)(O[C@H]2O[C@H](CO)[C@@H](O)[C@H](O)[C@H]2O)[C@@H](O)[C@@H]1O [sucrose, reference compound]
- increase of sweet taste perception of the Reb A dose response curve ([1]; 2.5% solution of sucrose, FIG. 1): about 2.5 sweetness units
- reduction of off flavors of Reb A ([3]; 2.5% solution of sucrose, FIG. 4): reduced somewhat
- comparative bitterness versus neat rebaudioside A solution ([2]; 1000 ppm rebaudioside A 97 with 2.5% sucrose, two of three panelists (Example 3)): equal in bitterness to the neat rebaudioside A solution
